Assay results taken from US20120064513A1, “Cell Sensor, And Monitoring Method Using Same For The Real-Time Monitoring Of Cell Capacitance” (Industry-Acaddemic Cooperation Foundation, Yonsei …, priority 2009, published 2012).

B1: TRAIL: cell death-inducing agent, TRAIL (TNF related apoptosis inducing ligand) (protein, UniProt P50591 1-281, looked up)
Tumor necrosis factor ligand …: MAMMEVQGGPSLGQTCVLIVIFTVLLQSLCVAVTYVYFTNELKQMQDKYSKSGIACFLKEDDSYWDPNDEESMNSPCWQVKWQLRQLVRKMILRTSEETISTVQEKQQNISPLVRERGPQRVAAHITGTRGRSNTLSSPNSKNEKALGRKINSWESSRSGHSFLSNLHLRNGELVIHEKGFYYIYSQTYFRFQEEIKENTKNDKQMVQYIYKYTSYPDPILLMKSARNSCWSKDAEYGLYSIYQGGIFELKENDRIFVSVTNEHLIDMDHEASFFGAFLVG

Tested on: HEP1 cell highly expressing CAR (coxsackie and adenovirus receptor)
Assay: real-time monitoring of cell capacitance with the cell sensor, HEP1 cells
Assay type: cell-based
From the text: The cell sensor 100 is connected to an LCR meter to measure capacitance, thereby monitoring potential changes of the cell 200 in real time. At this time, 10 mV of AC voltage at a frequency of 3 KHz is applied to the cell sensor 100. In this regard, the frequency of AC voltage applied to the cell sensor 100 may vary depending on the gap size between the first electrode 121 and the second electrode 122, and any frequency other than 3 KHz is also possible, as long as it is a low frequency.
A method for monitoring a cell condition in real time using the cell sensor according to the preferred embodiment of the present invention is as follows.
First, the aforementioned cell sensor is fabricated. The fabricated electrode is sterilized using autoclave equipment and ethanol, and then the well made of acryl or PDMS is attached on the electrode for cell culture.
Next, cells grown to a predetermined density are harvested with trypsin-EDTA, and introduced and attached onto the gap area between the electrodes using a pipette.
Subsequently, the cell-loaded electrodes are placed in a 5% CO2 cell culture incubator at 37° C. and incubated for 12 hrs, in order to tightly attach the cells onto the gap between the electrodes. During incubation, the cells are observed under an optical microscope, whether their conditions are suitable for the experiment.
Thereafter, the fluidic channel is mounted onto the electrodes where the cells are tightly attached, and is fixed on the stage of an optical microscope, of which the bottom is maintained at 37° C. Then, a cell culture media and at least one of biomolecules, cell death-inducing agents and metal particles for observation of endocytosis or adsorption is introduced through the inlet of the fluidic channel. […]
During the cell cultivation, capacitance between the first electrode and the second electrode is measured in real time, and thus endocytosis of the biomolecules into the cells through the cell surface receptor or adsorption is monitored in real time.

[1] = HEP1 cells, pretreatment then virus 1*10^5 per chamber

Row | Molecule | capacitance after the initial peak, virus after pretreatment of the cells [1] | initial capacitance peak on virus endocytosis after pretreatment of the cells [1] | cell capacitance during cell death by cell death-inducing agent (HEP-1 cells, final concentration 50 ng/ml)
1 | NC(=O)c1ncn([C@@H]2O[C@H](CO)[C@@H](O)[C@H]2O)n1 [Ribavirin] | the capacitance after the peak decreases | the initial peak appears | 
2 | B1 |  |  | capacitance decreases during cell death
